Source: ChEMBL document CHEMBL4004845, “Synthesis and trypanocidal activity of a library of 4-substituted 2-(1H-pyrrolo[3,2-c]pyridin-2-yl)propan-2-ols” (Eur J Med Chem, 2017)

How the values were obtained:
[1] = Selectivity index, ratio of CC50 for human U2OS cells to EC50 for Trypanosoma cruzi Y amastigote forms infected in human U2OS cells; assay type: toxicity, cell-based; conditions: read-out: Ratio CC50/EC50
Trypanosoma cruzi [2] = assay: Antitrypanosomal activity against Trypanosoma cruzi Y amastigote forms infected in human U2OS cells after 96 hrs by Draq5 staining-based high content analysis relative to control; assay type: functional
Trypanosoma cruzi [3] = assay: Antitrypanosomal activity against Trypanosoma cruzi Y amastigote forms infected in human U2OS cells after 96 hrs by Draq5 staining-based high content analysis; assay type: functional, cell-based
[4] = Cytotoxicity against human U2OS cells; assay type: cell-based
[5] = Cytotoxicity against human HepG2 cells after 48 hrs by Cell Titer Glo assay; assay type: cell-based; conditions: read-out: pTC50 (converted)
[6] = tested on: Trypanosoma brucei brucei; assay: Antitrypanosomal activity against Trypanosoma brucei brucei Lister 427 at 70 hrs post dose by resazurin-based assay; assay type: functional
[7] = tested on: Trypanosoma brucei brucei; assay: Antitrypanosomal activity against Trypanosoma brucei brucei Lister 427 at 18 hrs post dose by resazurin-based assay; assay type: functional; conditions: Lister 427, 18 h

Row | SMILES | selectivity ratio [1] | Emax (Trypanosoma cruzi [2]) | EC50 (Trypanosoma cruzi [3]) | CC50 [4] | CC50 at 48 h [5] | pEC50 [6] | EC50 [7]
1 | CC(C)(O)c1cc2c(-c3ccc(NC(=O)OCc4ccccc4)cc3)nccc2[nH]1 | 1.22 | 99.4% | 4.5 µM | 5.5 µM |  |  | 
2 | COc1ccccc1-c1nccc2[nH]c(C(C)(C)O)cc12 | > 3.7 | 56.6% | 53.9 µM |  |  |  | 
3 | Cc1ccc(-c2nccc3[nH]c(C(C)(C)O)cc23)cc1 | 1.1 | 86% | 34.6 µM | 38.5 µM |  |  | 
4 | Cn1cc(-c2cnc3[nH]cc(-c4cccc(C#N)c4)c3c2)cn1 |  |  |  |  | 14.5 to 100 µM |  | 
5 | CC(C)(C)c1ccc(-c2nccc3[nH]c(C(C)(C)O)cc23)cc1 | 1.3 | 110% | 17 µM | 35.3 µM |  |  | 
6 | O=C(Cn1ccnc1[N+](=O)[O-])NCc1ccccc1 [BENZNIDAZOLE] | > 235 | 102% | 3.6 µM |  |  |  | 
7 | CC(C)(O)c1cc2c(-c3cc(C(F)(F)F)cc(C(F)(F)F)c3)nccc2[nH]1 | 2.5 | 72.2% | 24.3 µM | 59.8 µM |  |  | 
8 | CN(C)Cc1ccc(-c2cc3c(-c4cnn(C)c4)ccnc3[nH]2)cc1 |  |  |  |  | 14.5 to 100 µM | 6.16 to 9.17 | ≤ 1 µM
9 | CC(C)(O)c1cc2c(-c3ccccc3)nccc2[nH]1 | 3.4 | 106% | 6.5 µM | 22.2 µM |  |  | 
10 | CC(C)(O)c1cc2c(-c3ccc(F)cc3)nccc2[nH]1 | 2 | 75.8% | 45.8 µM | 93.6 µM |  |  | 
11 | CC(C)(O)c1cc2c(-c3ccc(C(F)(F)F)cc3)nccc2[nH]1 | 1.5 | 102% | 40.9 µM | 72.3 µM |  |  | 
12 | CCSc1ccc(-c2nccc3[nH]c(C(C)(C)O)cc23)cc1 | 1.8 | 107% | 9.6 µM | 17.2 µM |  |  | 
13 | CS(=O)(=O)Nc1ccc(-c2c(-c3cccnc3)oc3ncnc(N)c23)cc1 |  |  |  |  | 14.5 to 100 µM | 6.16 to 9.17 | ≤ 1 µM
14 | Cc1occc1-c1ncc(O[C@H](CN)c2ccccc2)cc1-c1c[nH]c2ncccc12 |  |  |  |  | 14.5 to 100 µM | 6.16 to 9.17 | ≤ 1 µM
15 | CC(C)(O)c1cc2c(Cl)nccc2[nH]1 | 0.2 | 106% | 70.8 µM | 15.5 µM |  |  | 
16 | CC(C)=Cc1cccc2c1/C(=N/Nc1ccc(S(N)(=O)=O)cc1)C(=O)N2 [GW396574X] |  |  |  |  | 14.5 to 100 µM | 6.16 to 9.17 | ≤ 1 µM
17 | O=C(Nc1ccc(-c2ccnc3[nH]ccc23)s1)C1(Cc2ccccc2)CCCNC1 (stereo not drawn) |  |  |  |  | 14.5 to 100 µM | 6.16 to 9.17 | ≤ 1 µM
18 | CC[C@@H]1COCCN1c1cc(-c2cc(OC)c3c(N)n[nH]c3c2)nc(N)n1 |  |  |  |  | 14.5 to 100 µM | 6.16 to 9.17 | ≤ 1 µM
19 | CC(C)(O)c1cc2c(-c3ccc(C#N)cc3)nccc2[nH]1 |  | 30.6% |  |  |  |  | 
20 | CC(C)(O)c1cc2c(-c3ccsc3)nccc2[nH]1 | 1.6 | 72.8% | 106 µM | 199 µM |  |  | 
21 | Cc1cccc(-c2nccc3[nH]c(C(C)(C)O)cc23)c1 | 1.7 | 101% | 52.3 µM | 121 µM |  |  | 
22 | OCCn1c(CNCCCNc2nc3ccccc3[nH]2)cc2c(Cl)cc(Cl)cc21 |  |  |  |  | 14.5 to 100 µM | 6.16 to 9.17 | ≤ 1 µM
23 | CC(C)(O)c1cc2c(-c3ccccc3CO)nccc2[nH]1 |  | 30.1% |  |  |  |  | 
24 | CC(=O)c1ccc(-c2nccc3[nH]c(C(C)(C)O)cc23)cc1 | > 1.4 | 60.9% | 137 µM |  |  |  | 
25 | CC(C)(O)c1cc2c(-c3ccc(-c4ccccc4)c(F)c3)nccc2[nH]1 | 2.4 | 75.7% | 3.8 µM | 9.1 µM |  |  | 
26 | CN(C)Cc1ccc(-c2[nH]c3ncc(C#N)cc3c2-c2ccccc2)cc1 |  |  |  |  | 14.5 to 100 µM | 6.16 to 9.17 | ≤ 1 µM
27 | CC(C)(O)c1cc2c(-c3ccc4ccccc4c3)nccc2[nH]1 | 1.1 | 102% | 20.1 µM | 22.5 µM |  |  | 
